Assay results from patent publication US7160983B2, “Echinocandin derivatives, their method of preparation and their application as anti-fungal agents” (Aventis Pharma S.A., priority 1997, dated 2007).

test system: Glucane Synthesis of Candida Albicans; assay: Inhibition of the glucane synthesis of Candida albicans (membrane preparation, 14C-UDP glucose incorporation); type: biochemical; conditions: Candida albicans membranes, 25° C., 1 hour
Description: Pharmacological Study A—Inhibition of the Glucane Synthesis of Candida Albicans.
The membranes of Candida albicans are purified according to the process described by Tang and al Antimicrob. Agents Chemother 35, 99–103, 1991. 22.5 μg of membrane proteins are incubated in a mixture of 2 Mm of 14C-UDP glucose (specific activity=0.34 mCi./mmol, 50 μg of α-amylase, 1 Mm of dithiotreitol (DTT), 1 Mm EDTA, 100 Mm NaF, 7 μM of GTP-γ-S, 1M of sucrose and 5 oMm OF Ttris-HCL (pH 7.8) in a volume of 100 μl. The medium is incubated at 25° C. for 1 hour and the reaction terminated by addition of TCA to a final concentration of 5%. The reaction medium is transferred onto a pre-humidified glass fibre filter. The filter is washed, dried and its radioactivity is counted.
Mulundocandin is used as positive control.
The control of the medium is carried out with the same quantity of DMSO 1%.

Row | Substance | Inhibition of the glucane synthesis of Candida albicans (activity in words)
1 | Trifluoroacetate of 1-[4-[(2-aminoethyl) amino]-N2-(12-methyl-1-oxotetradecyl)-L-ornithine]4-[4-(4-hydroxyphenyl)-L-threonine]-5-L serine echinocandin B (isomer A and isomer B) [Example 9] | good activity
2 | (±) Trifluoroacetate of 1-[4-[(aminoiminomethyl)hydrazono]-N2-(12-methyl-1-oxotetradecyl)-L-ornithine]4-[4-(4-hydroxyphenyl)-L-threonine]-5-L serine echinocandin B [Example 11] | good activity
3 | Trifluoroacetate of 1-[4-[(2-aminoethyl) amino]N2-[[4′-(octyloxy)[1.1′-biphenyl]-4-[carbonyl]-L-ornithine]4-[4-(4-(4-hydroxyphenyl)-L-threonine]-5-L serine echinocandin B (isomer A) [Example 14] | good activity
